Laboratory results reported in patent US20250197382A1, “KIF18A INHIBITOR” (WIGEN BIOMEDICINE TECHNOLOGY (SHANGHAI) CO., LTD., priority 2022, published 2025).

The compounds below were run against Recombinant human KIF18A (1-467His-tagged) protein (Homo sapiens (Human), UniProt Q8NI77) (assay: KIF18A enzyme assay (microtubule-stimulated ATPase activity, ADP-Glo)). Details: 30 nM KIF18A, ATP 75 μM, read-out: inhibitory activity against KIF18A IC50.
Type: biochemical
Summary of the method: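 Baculovirus-expressed human KIF18A (1-467, His-tagged; 30 nM) preincubated 15 min at room temperature with compound (22-point 2-fold series) in pH 7.5 Tris buffer containing 30 μg/mL pig microtubules and 1 μM paclitaxel.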

Sequence of Recombinant human KIF18A (1-467His-tagged) protein (Q8NI77 1-467): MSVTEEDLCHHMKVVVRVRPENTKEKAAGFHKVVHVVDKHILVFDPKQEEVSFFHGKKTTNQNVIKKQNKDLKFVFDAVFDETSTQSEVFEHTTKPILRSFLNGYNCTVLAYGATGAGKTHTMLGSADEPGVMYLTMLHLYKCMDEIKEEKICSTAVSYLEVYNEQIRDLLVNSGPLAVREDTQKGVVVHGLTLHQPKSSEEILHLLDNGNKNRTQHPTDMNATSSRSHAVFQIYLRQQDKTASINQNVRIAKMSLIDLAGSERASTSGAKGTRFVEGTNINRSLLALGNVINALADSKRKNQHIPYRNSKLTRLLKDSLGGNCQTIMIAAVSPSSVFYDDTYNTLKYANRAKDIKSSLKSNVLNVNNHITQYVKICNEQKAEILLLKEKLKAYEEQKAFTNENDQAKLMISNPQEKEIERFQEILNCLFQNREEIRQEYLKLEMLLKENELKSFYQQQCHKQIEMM
Sequence of Recombinant human KIF18A (1-467His-tagged) protein (P02550 whole entry partner): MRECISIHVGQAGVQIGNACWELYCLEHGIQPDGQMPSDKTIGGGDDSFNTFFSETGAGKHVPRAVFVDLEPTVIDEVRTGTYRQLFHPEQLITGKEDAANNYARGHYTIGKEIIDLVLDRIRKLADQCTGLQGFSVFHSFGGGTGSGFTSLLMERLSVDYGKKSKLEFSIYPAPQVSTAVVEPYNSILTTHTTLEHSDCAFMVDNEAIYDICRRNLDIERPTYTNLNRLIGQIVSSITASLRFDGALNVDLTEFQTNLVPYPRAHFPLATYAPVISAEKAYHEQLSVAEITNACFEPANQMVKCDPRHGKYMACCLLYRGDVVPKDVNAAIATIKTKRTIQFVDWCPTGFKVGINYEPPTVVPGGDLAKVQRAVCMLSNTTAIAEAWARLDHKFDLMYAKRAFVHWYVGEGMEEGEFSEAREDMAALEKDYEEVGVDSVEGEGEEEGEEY
Sequence of Recombinant human KIF18A (1-467His-tagged) protein (P02554 whole entry partner): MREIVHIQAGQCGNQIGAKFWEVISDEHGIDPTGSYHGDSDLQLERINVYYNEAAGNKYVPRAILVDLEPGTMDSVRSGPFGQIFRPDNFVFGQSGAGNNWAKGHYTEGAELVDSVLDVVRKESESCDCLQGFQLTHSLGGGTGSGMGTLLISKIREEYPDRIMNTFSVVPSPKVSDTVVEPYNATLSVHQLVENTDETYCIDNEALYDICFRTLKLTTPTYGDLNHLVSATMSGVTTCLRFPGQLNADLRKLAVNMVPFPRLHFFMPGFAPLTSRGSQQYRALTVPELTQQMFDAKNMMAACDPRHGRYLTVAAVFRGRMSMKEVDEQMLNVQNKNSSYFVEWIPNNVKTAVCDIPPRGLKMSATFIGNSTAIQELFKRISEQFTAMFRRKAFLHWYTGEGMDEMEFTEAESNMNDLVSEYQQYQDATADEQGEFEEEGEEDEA

IC50 [nM] | SMILES
≤ 100 | C[C@@H](CO)NS(=O)(=O)c1ccc(C(=O)Nc2cc3c(c(N4CCC(F)(F)CC4)c2)OCC3)c(N2CCC3(CC2)CC3)c1 [Compound 29]
≤ 100 | C[C@@H]1CN(c2cc(NC(=O)c3ccc(S(=O)(=O)NCCO)cc3N3CCC4(CC3)CC4)cc3ccoc23)CCO1 [Compound 146]
≤ 100 | O=C(Nc1ccc(NS(=O)(=O)CCO)cc1N1CCC2(CC1)CC2)c1cc(N2CCC(F)(F)CC2)c2occc2c1 [Compound 161]
≤ 100 | CN1CCc2cc(C(=O)Nc3ccc(S(=O)(=O)NCCO)cc3N3CCC4(CC3)CC4)cc(N3CC4CC4C3)c21 (stereo not drawn) [Compound 314]
≤ 100 | C[C@@H]1CN(c2cc(C(=O)Nc3ccc(S(=O)(=O)N[C@@H](C)CO)cc3N3CCC4(CC3)CC4)cc3ccoc23)CCO1 [Compound 191]
≤ 100 | CN1CCc2cc(C(=O)Nc3ccc(S(=O)(=O)NCCO)cc3N3CCC4(CC3)CC4)cc(OCCC(F)(F)F)c21 [Compound 309]
≤ 100 | CC1(F)CCN(c2nc(NC(=O)c3ccc(NS(=O)(=O)CCO)cc3N3CCC4(CC3)CC4)cc3ccoc23)C1 (stereo not drawn) [Compound 200]
≤ 100 | C[C@@H]1CN(c2cc(NC(=O)c3ccc(S(=O)(=O)NCCO)cc3N3CCC4(CC3)CC4)cc3c2OCC3)CCO1 [Compound 18]
≤ 100 | O=C(Nc1cc(OCCC(F)(F)F)c2occc2c1)c1ccc(S(=O)(=O)NCCO)cc1N1CCC2(CC1)CC2 [Compound 149]
≤ 100 | C[C@@H]1CN(c2cc(C(=O)Nc3ccc(S(=O)(=O)N[C@@H](C)CO)cc3N3CCC4(CC3)CC4)cc3c2OCC3)CCO1 [Compound 63]
≤ 100 | O=C(Nc1cc(N2CCC(F)CC2)c2occc2c1)c1ccc(NS(=O)(=O)CCO)cc1N1CCC2(CC1)CC2 [Compound 137]
≤ 100 | O=C(Nc1ccc(NS(=O)(=O)CCO)cc1N1CCC2(CC1)CC2)c1cc2c(c(N3CCC(F)CC3)n1)OCC2 [Compound 105]
≤ 100 | CC1(F)CCN(c2cc(C(=O)Nc3ccc(S(=O)(=O)NCCO)cc3N3CCC4(CC3)CC4)cc3ccoc23)C1 (stereo not drawn) [Compound 184]
≤ 100 | C[C@H](CO)NS(=O)(=O)c1ccc(C(=O)Nc2cc3c(c(N4CCC(F)(F)CC4)n2)N(C)CC3)c(N2CCC3(CC2)CC3)c1 [Compound 350]
≤ 100 | Cn1ccc2cc(NC(=O)c3ccc(NS(=O)(=O)CCO)cc3N3CCC4(CC3)CC4)nc(N3CC(F)(F)C3)c21 [Compound 452]
≤ 100 | C[C@H](CO)NS(=O)(=O)c1ccc(C(=O)Nc2cc3ccoc3c(N3CCO[C@H](C)C3)n2)c(N2CCC3(CC2)CC3)c1 [Compound 224]
≤ 100 | O=C(Nc1ccc(S(=O)(=O)NCCO)cc1N1CCC2(CC1)CC2)c1cc2c(c(N3CCOCC3)n1)OCC2 [Compound 124]
≤ 100 | CC1(F)CCN(c2nc(C(=O)Nc3ccc(S(=O)(=O)NCCO)cc3N3CCC4(CC3)CC4)cc3c2OCC3)C1 (stereo not drawn) [Compound 120]
≤ 100 | C[C@H](CO)NS(=O)(=O)c1ccc(C(=O)Nc2cc(N3CCC(F)(F)CC3)c3occc3c2)c(N2CCC3(CC2)CC3)c1 [Compound 158]
≤ 100 | C[C@H]1CN(c2cc(C(=O)Nc3ccc(S(=O)(=O)NCCO)cc3N3CCC4(CC3)CC4)cc3ccoc23)CCO1 [Compound 179]
≤ 100 | Cn1ccc2cc(C(=O)Nc3ccc(NS(=O)(=O)CCO)cc3N3CCC4(CC3)CC4)nc(N3CC(F)(F)C3)c21 [Compound 484]

IC50 [nM] | SMILES
≤ 100 | O=C(Nc1ccc(S(=O)(=O)NCCO)cc1N1CCC2(CC1)CC2)c1cc2c(c(N3CCC4(CC4)C3)n1)OCC2 [Compound 118]
≤ 100 | CN1CCc2cc(C(=O)Nc3ccc(NS(=O)(=O)CCO)cc3N3CCC4(CC3)CC4)nc(OC3CCC3)c21 [Compound 359]
≤ 100 | CN1CCc2cc(C(=O)Nc3ccc(S(=O)(=O)NCCO)cc3N3CCC4(CC3)CC4)cc(N3CCOCC3)c21 [Compound 316]
≤ 100 | Cn1ccc2cc(C(=O)Nc3ccc(S(=O)(=O)NCCO)cc3N3CCC4(CC3)CC4)cc(N3CCOCC3)c21 [Compound 444]
≤ 100 | O=C(Nc1ccc(NS(=O)(=O)CCO)cc1N1CCC2(CC1)CC2)c1cc(N2CCC(F)CC2)c2occc2c1 [Compound 169]
≤ 100 | O=C(Nc1ccc(NS(=O)(=O)CCO)cc1N1CCC2(CC1)CC2)c1cc2ccoc2c(N2CC3CC3C2)n1 (stereo not drawn) [Compound 234]
≤ 100 | Cn1ccc2cc(NC(=O)c3ccc(NS(=O)(=O)CCO)cc3N3CCC4(CC3)CC4)nc(N3CCC(F)CC3)c21 [Compound 457]
≤ 100 | C[C@@H]1CN(c2cc(NC(=O)c3ccc(NS(=O)(=O)[C@H](C)CO)cc3N3CCC4(CC3)CC4)cc3ccn(C)c23)CCO1 [Compound 400]
≤ 100 | Cn1ccc2cc(NC(=O)c3ccc(NS(=O)(=O)CCO)cc3N3CCC4(CC3)CC4)cc(N3CCC4(CC4)C3)c21 [Compound 390]
≤ 100 | CC1(F)CCN(c2nc(NC(=O)c3ccc(S(=O)(=O)NCCO)cc3N3CCC4(CC3)CC4)cc3ccoc23)C1 (stereo not drawn) [Compound 216]
≤ 100 | O=C(Nc1cc2c(c(N3CCC(F)(F)CC3)c1)CCC2)c1ccc(NS(=O)(=O)CCO)cc1N1CCC2(CC1)CC2 [Compound 532]
≤ 100 | CN1CCc2cc(NC(=O)c3ccc(S(=O)(=O)NCCO)cc3N3CCC4(CC3)CC4)cc(OCCC(F)(F)F)c21 [Compound 277]
≤ 100 | O=C(Nc1ccc(S(=O)(=O)NCCO)cc1N1CCC2(CC1)CC2)c1cc(N2CCC(F)CC2)c2occc2c1 [Compound 185]
≤ 100 | CN1CCc2cc(C(=O)Nc3ccc(NS(=O)(=O)CCO)cc3N3CCC4(CC3)CC4)nc(N3CC(F)(F)C3)c21 [Compound 356]
≤ 100 | O=C(Nc1cc2c(c(N3CCOCC3)c1)OCC2)c1ccc(S(=O)(=O)NCCO)cc1N1CCC2(CC1)CC2 [Compound 28]
≤ 100 | O=C(Nc1ccc(S(=O)(=O)NCCO)cc1N1CCC2(CC1)CC2)c1cc2c(c(N3CCC(F)(F)CC3)n1)OCCC2 [Compound 550]
≤ 100 | C[C@H](CO)S(=O)(=O)Nc1ccc(NC(=O)c2cc(N3CCC(F)(F)CC3)c3occc3c2)c(N2CCC3(CC2)CC3)c1 [Compound 174]
≤ 100 | C[C@H]1CN(c2cc(C(=O)Nc3ccc(NS(=O)(=O)CCO)cc3N3CCC4(CC3)CC4)cc3ccoc23)CCO1 [Compound 163]
≤ 100 | CC1(F)CCN(c2cc(C(=O)Nc3ccc(NS(=O)(=O)CCO)cc3N3CCC4(CC3)CC4)cc3c2OCC3)C1 (stereo not drawn) [Compound 40]
≤ 100 | O=C(Nc1ccc(S(=O)(=O)NCCO)cc1N1CCC2(CC1)CC2)c1cc2c(c(OC3CCC3)c1)OCC2 [Compound 55]
≤ 100 | C[C@@H]1CN(c2nc(C(=O)Nc3ccc(NS(=O)(=O)[C@@H](C)CO)cc3N3CCC4(CC3)CC4)cc3ccoc23)CCO1 [Compound 239]

IC50 [nM] | SMILES
≤ 100 | O=C(Nc1cc(OC2CCC2)c2occc2c1)c1ccc(S(=O)(=O)NCCO)cc1N1CCC2(CC1)CC2 [Compound 151]
≤ 100 | C[C@@H]1CN(c2cc(NC(=O)c3ccc(S(=O)(=O)N[C@@H](C)CO)cc3N3CCC4(CC3)CC4)cc3ccoc23)CCO1 [Compound 159]
≤ 100 | O=C(Nc1ccc(S(=O)(=O)NCCO)cc1N1CCC2(CC1)CC2)c1cc2c(c(OCCC(F)(F)F)c1)OCC2 [Compound 53]
≤ 100 | C[C@H](CO)NS(=O)(=O)c1ccc(NC(=O)c2cc3ccn(C)c3c(N3CCC(F)(F)CC3)n2)c(N2CCC3(CC2)CC3)c1 [Compound 510]
≤ 100 | O=C(Nc1cc(N2CCC3(CC3)C2)c2occc2c1)c1ccc(S(=O)(=O)NCCO)cc1N1CCC2(CC1)CC2 [Compound 150]
≤ 100 | O=C(Nc1cc2c(c(N3CCC(F)(F)CC3)n1)OCO2)c1ccc(NS(=O)(=O)CCO)cc1N1CCC2(CC1)CC2 [Compound 538]
≤ 100 | CC(C)(CO)Nc1nc(C(=O)Nc2ccc(NS(=O)(=O)CCO)cc2N2CCC3(CC2)CC3)cc2ccoc12 [Compound 235]
≤ 100 | O=C(Nc1cc2c(c(N3CC4CC4C3)n1)OCC2)c1ccc(S(=O)(=O)NCCO)cc1N1CCC2(CC1)CC2 (stereo not drawn) [Compound 90]
≤ 100 | C[C@@H]1CN(c2nc(NC(=O)c3ccc(S(=O)(=O)N[C@@H](C)CO)cc3N3CCC4(CC3)CC4)cc3c2N(C)CC3)CCO1 [Compound 351]
≤ 100 | C[C@H](CO)NS(=O)(=O)c1ccc(C(=O)Nc2cc3c(c(N4CCO[C@H](C)C4)c2)OCC3)c(N2CCC3(CC2)CC3)c1 [Compound 32]
≤ 100 | O=C(Nc1cc2ccoc2c(N2CCC(F)(F)CC2)n1)c1ccc(S(=O)(=O)NCCO)cc1N1CCC2(CC1)CC2 [Compound 209]
≤ 100 | C[C@H]1CN(c2nc(C(=O)Nc3ccc(S(=O)(=O)NCCO)cc3N3CCC4(CC3)CC4)cc3ccoc23)CCO1 [Compound 243]
≤ 100 | CC(C)(CO)Nc1nc(NC(=O)c2ccc(NS(=O)(=O)CCO)cc2N2CCC3(CC2)CC3)cc2ccoc12 [Compound 203]
≤ 100 | Cn1ccc2cc(NC(=O)c3ccc(S(=O)(=O)NCCO)cc3N3CCC4(CC3)CC4)nc(OCCC(F)(F)F)c21 [Compound 469]
≤ 100 | Cn1ccc2cc(C(=O)Nc3ccc(S(=O)(=O)NCCO)cc3N3CCC4(CC3)CC4)nc(OCCC(F)(F)F)c21 [Compound 501]
≤ 100 | O=C(Nc1ccc(S(=O)(=O)NCCO)cc1N1CCC2(CC1)CC2)c1cc(OC2CCC2)c2occc2c1 [Compound 183]
≤ 100 | CN1CCc2cc(C(=O)Nc3ccc(NS(=O)(=O)CCO)cc3N3CCC4(CC3)CC4)nc(N3CC4CC4C3)c21 (stereo not drawn) [Compound 362]
≤ 100 | O=C(Nc1ccc(S(=O)(=O)NCCO)cc1N1CCC2(CC1)CC2)c1cc2ccoc2c(N2CCC3(CC3)C2)n1 [Compound 246]
≤ 100 | CC1(F)CCN(c2cc(NC(=O)c3ccc(S(=O)(=O)NCCO)cc3N3CCC4(CC3)CC4)cc3c2OCC3)C1 (stereo not drawn) [Compound 24]
≤ 100 | Cn1ccc2cc(NC(=O)c3ccc(NS(=O)(=O)CCO)cc3N3CCC4(CC3)CC4)cc(N3CCC(F)CC3)c21 [Compound 393]
≤ 100 | O=C(Nc1ccc(NS(=O)(=O)CCO)cc1N1CCC2(CC1)CC2)c1cc2c(c(N3CC(F)(F)C3)n1)OCC2 [Compound 100]
